Values of other authors as cited in EP0731703B1, “LIPOSOMAL FORMULATIONS CONTAINING VIDARABINE OR ITS DERIVATIVES” (INSTITUTO NACIONAL DE ENGENHARIA E TECNOLOGIA …, priority 1993, dated 1995).

Details: literature (Schabel 1968; LePage et al. 1972)

aqueous solubility	Compound
poor aqueous solubility	Nc1ncnc2c1ncn2[C@@H]1O[C@H](CO)[C@@H](O)[C@@H]1O [ARA-A, 9-β-D-arabinofuranosyladenine]
water-soluble	Nc1ncnc2c1ncn2[C@@H]1O[C@H](COP(=O)(O)O)[C@@H](O)[C@@H]1O [ARA-AMP, 9-β-D--arabinofuranosyladenine monophosphate]
